Laboratory results published in PubChem BioAssay AID1259407 (Chemical Carcinogenesis Research Information System (CCRIS), 2018).
The source made the active and inactive calls. No rule for the calls is given here.

Test system: CCRIS mutagenicity, Ames/micronucleus/aberration tests
Experiment: CCRIS mutagenicity studies
[1] = Test System: AMES SALMONELLA TYPHIMURIUM, Strain/Indicator: TA1535, Metabolic Activation: NONE, Method: PREINCUBATION
[2] = Test System: AMES SALMONELLA TYPHIMURIUM, Strain/Indicator: TA1538, Metabolic Activation: NONE, Method: PREINCUBATION
[3] = Test System: AMES SALMONELLA TYPHIMURIUM, Strain/Indicator: TA98, Metabolic Activation: NONE, Method: STANDARD PLATE
[4] = Test System: AMES SALMONELLA TYPHIMURIUM, Strain/Indicator: TA98, Metabolic Activation: RAT, LIVER, S-9, AROCLOR 1254, Method: STANDARD PLATE
[5] = Test System: AMES SALMONELLA TYPHIMURIUM, Strain/Indicator: TA100, Metabolic Activation: NONE, Method: STANDARD PLATE
[6] = Test System: AMES SALMONELLA TYPHIMURIUM, Strain/Indicator: TA100, Metabolic Activation: RAT, LIVER, S-9, AROCLOR 1254, Method: STANDARD PLATE
[7] = Test System: AMES SALMONELLA TYPHIMURIUM, Strain/Indicator: TA1537, Metabolic Activation: RAT, LIVER, S-9, AROCLOR 1254, Method: STANDARD PLATE

## O=C(O)C(F)(F)C(F)(Cl)C(F)(F)C(F)(Cl)C(F)(F)C(F)(Cl)C(F)(F)Cl (stereo not given)
Test System: AMES SALMONELLA TYPHIMURIUM, Strain/Indicator: TA98, Metabolic Activation: NONE, Method: PREINCUBATION
  mutagenic call: inactive; negative
Test System: AMES SALMONELLA TYPHIMURIUM, Strain/Indicator: TA98, Metabolic Activation: RAT, LIVER, S-9, Method: PREINCUBATION
  mutagenic call: inactive; negative
Test System: AMES SALMONELLA TYPHIMURIUM, Strain/Indicator: TA100, Metabolic Activation: NONE, Method: PREINCUBATION
  mutagenic call: inactive; negative
Test System: AMES SALMONELLA TYPHIMURIUM, Strain/Indicator: TA100, Metabolic Activation: RAT, LIVER, S-9, Method: PREINCUBATION
  mutagenic call: inactive; negative
[1]
  mutagenic call: inactive; negative
Test System: AMES SALMONELLA TYPHIMURIUM, Strain/Indicator: TA1535, Metabolic Activation: RAT, LIVER, S-9, Method: PREINCUBATION
  mutagenic call: inactive; negative
Test System: AMES SALMONELLA TYPHIMURIUM, Strain/Indicator: TA1537, Metabolic Activation: NONE, Method: PREINCUBATION
  mutagenic call: inactive; negative
Test System: AMES SALMONELLA TYPHIMURIUM, Strain/Indicator: TA1537, Metabolic Activation: RAT, LIVER, S-9, Method: PREINCUBATION
  mutagenic call: inactive; negative
[2]
  mutagenic call: inactive; negative
Test System: AMES SALMONELLA TYPHIMURIUM, Strain/Indicator: TA1538, Metabolic Activation: RAT, LIVER, S-9, Method: PREINCUBATION
  mutagenic call: inactive; negative
Test System: CHINESE HAMSTER OVARY, Strain/Indicator: CHO-K1-BH4 (HGPRT), Metabolic Activation: NONE, Method: STANDARD PLATE
  mutagenic call: inactive; negative
Test System: CHINESE HAMSTER OVARY, Strain/Indicator: CHO-K1-BH4 (HGPRT), Metabolic Activation: RAT, LIVER, S-9, Method: STANDARD PLATE
  mutagenic call: inactive; negative
Test System: UDS RODENT HEPATOCYTES, Strain/Indicator: THY INCORP (NON-S-PHASE), Metabolic Activation: NONE, Method: AUTORADIOGRAPHY
  mutagenic call: inactive; negative

## [Cl][Ni][Cl]
End Point: IN VITRO MICRONUCLEUS, Test System: CHL/IU CELLS, Metabolic Activation: NONE
  mutagenic call: active; positive
Test System: AMES SALMONELLA TYPHIMURIUM, Strain/Indicator: TA102, Metabolic Activation: NONE, Method: PREINCUBATION
  mutagenic call: inactive; negative
[1]
  mutagenic call: inactive; negative
[2]
  mutagenic call: inactive; negative
Test System: AMES SALMONELLA TYPHIMURIUM, Strain/Indicator: TA1975, Metabolic Activation: NONE, Method: PREINCUBATION
  mutagenic call: inactive; negative
Test System: AMES SALMONELLA TYPHIMURIUM, Strain/Indicator: TA1978, Metabolic Activation: NONE, Method: PREINCUBATION
  mutagenic call: inactive; negative
Test System: CHINESE HAMSTER G10, Strain/Indicator: G10 (GPT)/6-THIOGUANINE, Metabolic Activation: NONE
  mutagenic call: active; positive
Test System: CHINESE HAMSTER G10, Strain/Indicator: G10/6-THIOGUANINE, Metabolic Activation: NONE
  mutagenic call: active; positive
Test System: CHINESE HAMSTER G12, Strain/Indicator: G12 (GPT)/6-THIOGUANINE, Metabolic Activation: NONE
  mutagenic call: active; positive
Test System: CHINESE HAMSTER G12, Strain/Indicator: G12/6-THIOGUANINE, Metabolic Activation: NONE
  mutagenic call: active; positive
Test System: CHINESE HAMSTER V-79, Strain/Indicator: SP5 V-79 (HPRT)/6-THIOGUANINE, Metabolic Activation: NONE, Method: STANDARD PLATE
  mutagenic call: inactive; negative
Test System: CHINESE HAMSTER V-79, Strain/Indicator: SPD8 V-79 (HPRT)/6-THIOGUANINE, Metabolic Activation: NONE, Method: STANDARD PLATE
  mutagenic call: active; positive
Test System: E. COLI, Strain/Indicator: WP2 UVRA, Metabolic Activation: NONE, Method: SPOT TEST
  mutagenic call: active; positive
Test System: E. COLI, Strain/Indicator: WP2 UVRA, Metabolic Activation: NONE, Method: STANDARD PLATE
  mutagenic call: active; positive
Test System: UDS HUMAN AMNION FL CELL LINE, Strain/Indicator: THY INCORP, Metabolic Activation: NONE, Method: LIQUID SCINTILLATION COUNTING
  mutagenic call: active; positive

## O=[N+]([O-])c1cc(C(F)(F)F)cc([N+](=O)[O-])c1O
[3]
  mutagenic call: inactive; negative
[4]
  mutagenic call: inactive; negative
[5]
  mutagenic call: inactive; negative
[6]
  mutagenic call: inactive; negative
Test System: AMES SALMONELLA TYPHIMURIUM, Strain/Indicator: TA1535, Metabolic Activation: NONE, Method: STANDARD PLATE
  mutagenic call: inactive; negative
Test System: AMES SALMONELLA TYPHIMURIUM, Strain/Indicator: TA1535, Metabolic Activation: RAT, LIVER, S-9, AROCLOR 1254, Method: STANDARD PLATE
  mutagenic call: inactive; negative
Test System: AMES SALMONELLA TYPHIMURIUM, Strain/Indicator: TA1537, Metabolic Activation: NONE, Method: STANDARD PLATE
  mutagenic call: inactive; negative
[7]
  mutagenic call: inactive; negative
Test System: AMES SALMONELLA TYPHIMURIUM, Strain/Indicator: TA1538, Metabolic Activation: NONE, Method: STANDARD PLATE
  mutagenic call: inactive; negative
Test System: AMES SALMONELLA TYPHIMURIUM, Strain/Indicator: TA1538, Metabolic Activation: RAT, LIVER, S-9, AROCLOR 1254, Method: STANDARD PLATE
  mutagenic call: inactive; negative

## Oc1ccc2ccc3c4ccccc4cc4ccc1c2c43
Test System: AMES SALMONELLA TYPHIMURIUM, Strain/Indicator: TA97, Metabolic Activation: RAT, LIVER, S-9, AROCLOR 1254, Method: STANDARD PLATE
  mutagenic call: active; positive
[3]
  mutagenic call: active; positive
[4]
  mutagenic call: active; positive
[5]
  mutagenic call: active; positive
[6]
  mutagenic call: active; positive
[7]
  mutagenic call: active; positive
Test System: CHINESE HAMSTER V-79, Strain/Indicator: V-79/8-AZAGUANINE, Metabolic Activation: NONE, Method: STANDARD PLATE
  mutagenic call: active; positive
